Test results taken from patent US7608716B2, “Pyrazolonaphthyridine derivative” (Aska Pharmaceutical Co., Ltd., priority 2002, dated 2009).

Key:
[1] = test system: T1, PDE IV isozymes separated from U937 culture cells; assay: PDE IV inhibition ([3H]-cAMP hydrolysis); type: biochemical; conditions: cAMP 1 μM substrate, 30° C., 20 minutes
T1 construct: PDE IV isozymes as used herein were separated from U937 culture cells by using an anion exchange chromatography
Procedure: PDE IV isozymes as used herein were separated from U937 culture cells by using an anion exchange chromatography. Type IV PDE isozyme was admixed with ethylene glycol (EG) to adjust the final EG concentration to 30%, then stored at −20° C. and diluted when used. The enzymatic activity for PDE IV was measured using cAMP as a substrate.
Each test compound was dissolved in DMSO to adjust the final concentration to 1% (2.5 μl/tube).
Incubation Buffer Solution (pH7.5):
• Tris-HCl (50 mM), magnesium chloride (6 mM), dithiothreitol (2.5 mM), 5-nucleotidase (4 μg/ml), bovine serum albumin (0.23 mg/ml), and cAMP (1 μM).
A mixture of the aforementioned test compound solution and the buffer solution was incubated at 30° C. for 20 minutes. The reaction was quenched by admixing with 1 ml of anion exchange resin slurry (AG1-X8, 200-400 meshes, chloride form; Bio-Rad) to absorb unreacted substrates. After the reaction stopped, the mixture was centrifuged at 800×g for 10 minutes, and the resulting supernatant was collected with vials in 250 μl aliquots. To each vial was added 5 ml of ACS-II (scintillator, Amersham). The radioactivity was measured with a liquid scintillator counter for [^3H]-adenosine and set as the PDE IV activity.

Structure (SMILES)	melting point	IC50 [1] [µM]
O=C(O)c1cccc(CCc2n[nH]c3c2c(=O)n(-c2ccccc2)c2ncccc32)c1 [Example 38, 3-[2-(3-carboxyphenyl)ethyl]-5-phenyl-1H-pyrazolo[4,3-c][1,8]naphthyridin-4 (5H)-one]	159 to 161 °C	–
O=c1c2c(Cc3ccccc3O)n[nH]c2c2cccnc2n1-c1ccccc1 [Example 42, 3-(2-hydroxybenzyl)-5-phenyl-1H-pyrazolo[4,3-c][1,8]-naphthyridin-4 (5H)-one]	278 to 280 °C	–
CS(=O)(=O)Nc1ccc(CCc2n[nH]c3c2c(=O)n(-c2ccccc2)c2ncccc32)cc1 [Example 48, 3-[2-(4-methanesulfonylaminophenyl)ethyl]-5-phenyl-1H-pyrazolo[4,3-c][1,8]naphthyridin-4 (5H)-one]	284 to 285 °C	–
CS(=O)(=O)Nc1ccc(Cc2n[nH]c3c2c(=O)n(-c2ccccc2)c2ncccc32)cc1 [Example 49, 3-(4-methanesulfonylaminobenzyl)-5-phenyl-1H-pyrazolo[4,3-c][1,8]naphthyridin-4 (5H)-one]	306 to 307 °C	–
NC(=O)Nc1ccccc1CCc1n[nH]c2c1c(=O)n(-c1ccccc1)c1ncccc21 [Example 50, 5-phenyl-3-[2-(2-ureidophenyl)ethyl]-1H-pyrazolo[4,3-c][1,8]naphthyridin-4 (5H)-one]	300 to 305 °C	–
O=c1c2c(CCc3cc[n+]([O-])cc3)n[nH]c2c2cccnc2n1-c1ccccc1 [Example No. 5, 5-phenyl-3-[2-(1-oxypyridin-4-yl)ethyl]-1H-pyrazolo[4,3-c][1,8]-naphthyridin-4 (5H)-one]	285 °C (dec.)	0.067
O=c1c2c(CCc3ccncc3)n[nH]c2c2cccnc2n1-c1cccc([N+](=O)[O-])c1 [Example No. 6, 5-(3-nitrophenyl)-3-[2-(pyridin-4-yl)ethyl]-1H-pyrazolo[4,3-c][1,8]naphthyridin-4 (5H)-one]	161 to 165 °C	0.025
Nc1ccc(CCc2n[nH]c3c2c(=O)n(-c2ccccc2)c2ncccc32)cc1 [Example No. 13, 3-[2-(4-aminophenyl)ethyl]-5-phenyl-1H-pyrazolo[4,3-c][1,8]naphthyridin-4 (5H)-one]	–	0.031
O=C(O)c1ccc(CCc2n[nH]c3c2c(=O)n(-c2ccccc2)c2ncccc32)cc1 [Example No. 14, 3-[2-(4-carboxyphenyl)ethyl]-5-phenyl-1H-pyrazolo[4,3-c][1,8]naphthyridin-4 (5H)-one]	–	0.057
COc1ccc(Cc2n[nH]c3c2c(=O)n(-c2ccccc2)c2ncccc32)cc1 [Example No. 21, 3-(4-methoxybenzyl)-5-phenyl-1H-pyrazolo[4,3-c][1,8]naphthyridin-4 (5H)-one]	–	0.088
COc1ccccc1Cc1n[nH]c2c1c(=O)n(-c1ccccc1)c1ncccc21 [Example No. 22, 3-(2-methoxybenzyl)-5-phenyl-1H-pyrazolo[4,3-c][1,8]naphthyridin-4 (5H)-one]	–	0.026
O=c1c2c(Cc3cccs3)n[nH]c2c2cccnc2n1-c1ccccc1 [Example No. 23, 3-(2-thienylmethyl)-5-phenyl-1H-pyrazolo[4,3-c][1,8]naphthyridin-4 (5H)-one]	–	0.082
O=c1c2c(Cc3ccccc3[N+](=O)[O-])n[nH]c2c2cccnc2n1-c1ccccc1 [Example No. 26, 3-(2-nitrobenzyl)-5-phenyl-1H-pyrazolo[4,3-c][1,8]naphthyridin-4 (5H)-one]	–	0.02
COc1ccc(OC)c(Cc2n[nH]c3c2c(=O)n(-c2ccccc2)c2ncccc32)c1 [Example No. 27, 3-(2,5-dimethoxybenzyl)-5-phenyl-1H-pyrazolo[4,3-c][1,8]naphthyridin-4 (5H)-one]	–	0.021
COc1ccc(Cc2n[nH]c3c2c(=O)n(-c2ccccc2)c2ncccc32)c(OC)c1 [Example No. 30, 3-(2,4-dimethoxybenzyl)-5-phenyl-1H-pyrazolo[4,3-c][1,8]naphthyridin-4 (5H)-one]	–	0.049
CCOC(=O)Cc1ccc(Cc2n[nH]c3c2c(=O)n(-c2ccccc2)c2ncccc32)cc1 [Example No. 32, 3-(4-ethoxycarbonylmethylbenzyl)-5-phenyl-1H-pyrazolo[4,3-c][1,8]naphthyridin-4 (5H)-one]	–	0.028
O=c1c2c(Cc3ccc(O)cc3)n[nH]c2c2cccnc2n1-c1ccccc1 [Example No. 41, 3-(4-hydroxybenzyl)-5-phenyl-1H-pyrazolo[4,3-c][1,8]-naphthyridin-4 (5H)-one]	316 to 317 °C	0.089
Nc1ccc(Cc2n[nH]c3c2c(=O)n(-c2ccccc2)c2ncccc32)cc1 [Example No. 43, 3-(4-aminobenzyl)-5-phenyl-1H-pyrazolo[4,3-c][1,8]-naphthyridin-4 (5H)-one]	–	0.086
O=C(O)Cc1ccc(Cc2n[nH]c3c2c(=O)n(-c2ccccc2)c2ncccc32)cc1 [Example No. 46, 3-(4-carboxymethylbenzyl)-5-phenyl-1H-pyrazolo[4,3-c][1,8]naphthyridin-4 (5H)-one]	297 to 300 °C	0.032
N#Cc1cccc(-n2c(=O)c3c(Cc4ccccc4)n[nH]c3c3cccnc32)c1 [Example No. 53, 3-benzyl-5-(3-cyanophenyl)-1H-pyrazolo[4,3-c][1,8]-naphthyridin-4 (5H)-one]	–	0.028
O=c1c2c(Cc3ccccc3)n[nH]c2c2cccnc2n1-c1cccc([N+](=O)[O-])c1 [Example No. 56, 3-benzyl-5-(3-nitrophenyl)-1H-pyrazolo[4,3-c][1,8]-naphthyridin-4 (5H)-one]	–	0.023
O=c1c2c(Cc3ccccc3)n[nH]c2c2cccnc2n1-c1cccc(F)c1 [Example No. 58, 3-benzyl-5-(3-fluorophenyl)-1H-pyrazolo[4,3-c][1,8]-naphthyridin-4 (5H)-one]	–	0.035
